In patent publication US12663426B2, “Method and composition for measurement of nitric oxide” (The University of Chicago, priority 2019, dated 2026):
Read-outs that look alike come from different tables or passages of the source.

Tests used:
[1] = 37° C., 100 mM phosphate buffer (pH 7.4); cited from earlier work
[2] = Decomposition / NO release of DEA NONOate; type: physicochemical
Source text: (§1) Sub-cellular nitric oxide quantification. […] (FIG. 16).
Additionally, DEA-NONOate concentration follows first order decay and can be described with initial DEA-NONOate concentration (indicated by [NONOate]0).
Next, in order to measure the relative activities of NOS3 at the plasma membrane and the TGN, a method was developed to quantify sub-cellular NO generated due to NOS3 activity. […] As the effective concentration of NO at any time, [NO]eff, changes with time, NOS3 activity is best quantified by the rate of NO production. Therefore, the decomposition rate constant (k1 sec^−1) of DEA-NONOate was first measured from its UV absorbance at 250 nm, to obtain [NO]eff over time in solution for fixed DEA-NONOate concentrations (FIG. 17a, Methods) (Ramamurthi, A. & Lewis, R. S. Measurement and modeling of nitric oxide release rates for nitric oxide donors. Chem. Res. Toxicol. 10, 408-413 (1997)). […]
In vitro fluorescence measurements: All fluorescence studies were carried out on a Fluoromax-4 (Horiba Scientific, Japan) spectrophotometer. […] Fluorescence emission spectra were collected in the range of 560-620 nm (slit width=2 nm) for DAR and 655-700 nm (slit width=2 nm) for A647N. […] Fluorescence signal from NOckout. […] was recorded sequentially in the DAR (G) and A647N (R) channels before and after the addition of DEANONOate (30 μM) at timed intervals (30 s). […]

NOS2 = biological target: T1, NOS2 (Mus musculus, UniProt P29477); assay: In cellulo specificity of NOckout to NO in LPS primed J774A.1 cells; type: cell-based; details: J774 cells, LPS; VAS2870 10 μM, ABAH 50 μM
T1 construct: J774A.1 cells were treated with 1 μg/mL LPS for 12 h prior to the addition of NOckout; endogenous in cells; host or cells: J774A.1 macrophages primed with LPS
Protocol: Pharmacological inhibition: Pharmacological inhibition of different enzymes were performed by employing known inhibitors. […] Cells were bathed in inhibitors 1 h prior to the addition of NOckout probes during the specificity experiment performed in J774A.1 cells.
In cellulo specificity of NOckout to NO: In cellulo specificity of the NOckout probe towards NO^− was validated in J774A.1 cells. […] J774A.1 cells were treated with 1 μg/mL LPS for 12 h prior to the addition of NOckout (500 nM in HBSS) either in the presence or in absence of specific inhibitors. LPS addition was employed to induce the expression of NOS2NOX and MPO. […] After 90 minutes of incubation with the NOckout culture media was removed from the cells and three washes were performed using HBSS to remove extracellular NOckout before proceeding to the fluorescence imaging. […]
The in-cell specificity of NOckout can be evaluated by measuring the contribution of the reactive species produced by NOX, MPO and NOS2 to the observed fold change in G/R ratio upon LPS stimulation. […] As NOS2 activity is not pan-endosomal, specificity is given by quantifying the percentage of endosomes that show G/R values higher than the mean G/R value in endosomes of unstimulated, NOS2 inhibited cells, as the latter corresponds to basal endosomal NO levels (FIG. 6c).

NOS3 = assay: Sub-cellular nitric oxide quantification (rate of NO production, in-cell calibration); type: cell-based; details: T-47D cells, 1 μM thapsigargin
Protocol: as §1
After characterizing NO releasing profile of DEA NONOate, cellular NO production was compared to NO released from DEA-NONOate. […] As expected G/B intensity increases over time and the rate of increase is proportional to DEA-NONOate concentration. Then 1 μM thapsigargin was added to get the initial rate of NO production at the plasma membrane.
Note this only applies to the initial phase of DAR activation where [DAR] can be considered as constant. From the predicted [NO] from DEA-NONOate, the tested concentration of NONOate, the first 30 s [NO] increases with t. […]
Using the calibration curve, the initial G/B rates from thapsigargin treated cells is plugged in and the plasma membrane NO production was measured to be 576±61 nM/s (FIG. 3e).
Next, in order to measure the relative activities of NOS3 at the plasma membrane and the TGN, a method was developed to quantify sub-cellular NO generated due to NOS3 activity. […] As the effective concentration of NO at any time, [NO]eff, changes with time, NOS3 activity is best quantified by the rate of NO production. […]
An in-cell calibration protocol was developed to measure the rate of NO production for various concentrations of DEA-NONOate using NOckout probes. […] NOckout^PM labeled cells was then treated with 1 μM thapsigargin and measured the rate of NO production given by the increasing G/B ratio. […]

TNF-α = TNF-α quantification by ELISA in J774A.1 cells; type: cell-based; details: 500 nM, 2 h
Protocol: TNF-α Quantification: To quantify the immunogenicity NOckout probes and the corresponding immunogen alone, ELISA for TNF-α was performed in J774A.1 cells. Briefly, J774A.1 cells cultured in DMEM were incubated with 500 nM NOckout sensors, CpG nucleotides, RNA, or LPS at 37° C. for 2 h. Postincubation 100 μL of extracellular medium from the culture was used to perform TNF-α quantification using ELISA kit (Cayman, catalog number 500850) according to manufacturers instructions. The calibration curve for TNF-α was generated using recombinant. TNF-α as per the vendor's instructions.
We treated J774A.1 cells with each PAMP motif, for example mCpG, zCpG, RNA, or iRNA and their corresponding NOckout display vairent and quantified TNFα in the extracellular milieu by enzyme-linked immunisorbent assay (ELISA) (FIG. 47). […] This is because, beyond 2 h in cell culture, the probe is degraded in lysosomes, likely by DNase II, NOckout probes therefore can reliably report on endosomal NO levels only up to 2 h postinternalization (FIG. 45).

murine TLR-9 = biological target: T2, murine TLR-9 (Mus musculus, UniProt Q9EQU3); assay: Endosomal NO in primary mouse microglia with NOckout^mCpG; type: cell-based; details: primary microglia, versus NOckout^mCpG, n=100 endosomes
T2 construct: endogenous in cells; host or cells: primary microglia from C57BL/6 mice
T2 sequence (Q9EQU3 26-1032): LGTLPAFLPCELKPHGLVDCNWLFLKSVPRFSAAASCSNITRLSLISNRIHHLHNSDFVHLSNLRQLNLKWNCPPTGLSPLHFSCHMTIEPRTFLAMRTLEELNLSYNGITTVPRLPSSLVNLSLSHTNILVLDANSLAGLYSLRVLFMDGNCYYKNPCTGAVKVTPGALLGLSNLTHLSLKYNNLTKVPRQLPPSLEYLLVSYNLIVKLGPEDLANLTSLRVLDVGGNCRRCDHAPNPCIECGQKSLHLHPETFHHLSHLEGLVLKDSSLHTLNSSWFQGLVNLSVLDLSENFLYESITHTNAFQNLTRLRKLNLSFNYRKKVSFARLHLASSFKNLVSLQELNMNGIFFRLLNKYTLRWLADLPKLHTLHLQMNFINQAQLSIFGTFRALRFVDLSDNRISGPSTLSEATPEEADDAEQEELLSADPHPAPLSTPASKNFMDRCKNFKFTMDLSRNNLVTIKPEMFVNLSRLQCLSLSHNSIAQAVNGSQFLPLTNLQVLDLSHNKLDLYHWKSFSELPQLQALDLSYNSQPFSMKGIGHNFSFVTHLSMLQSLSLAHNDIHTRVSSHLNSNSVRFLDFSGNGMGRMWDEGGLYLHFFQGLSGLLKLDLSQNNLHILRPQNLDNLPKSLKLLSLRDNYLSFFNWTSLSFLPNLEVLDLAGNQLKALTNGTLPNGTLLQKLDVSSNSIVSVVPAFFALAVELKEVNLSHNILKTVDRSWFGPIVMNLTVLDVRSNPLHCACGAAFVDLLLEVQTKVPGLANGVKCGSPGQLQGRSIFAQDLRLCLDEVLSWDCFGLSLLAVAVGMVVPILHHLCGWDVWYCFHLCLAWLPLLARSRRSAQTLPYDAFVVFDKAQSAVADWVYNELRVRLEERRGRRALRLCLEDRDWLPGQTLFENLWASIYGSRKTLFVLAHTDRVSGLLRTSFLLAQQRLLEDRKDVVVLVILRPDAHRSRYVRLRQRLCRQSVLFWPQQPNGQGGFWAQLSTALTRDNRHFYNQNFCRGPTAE
Source text: Image analysis: A MATLAB based program called Findosome was used to calculate the (G/R) values of individual endosomes from the acquired images. Maximum Z-projected images created using Fiji (NIH) were fed to Findosome to pick endosomal compartments as ROI corresponding to individual endosomes based on the A647 channel intensity. For each ROI, the program calculates fluorescence intensities both in the normalizing channel (A647, R) as well as in the DAR (G) channel. The results were exported as an excel file. From the results, (G/R) value for individual endosomes can be calculated. Phagosomal (G/R) values from the zebrafish microglia are calculated using Fiji software. Images were imported to Fiji and maximum Z-projected images were created. ROI were manually drawn around clearly identifiable phagosomes using the normalizing channel A647 intensity. Fluorescence intensities in A647 and DAR channels were calculated. G/R values are either represented as heat map images using Fiji or as bar graph using Origin software. Intracellular measurements of (G/R) values was performed in GFP colocalized microglia. For (G/R) ratio quantification experiments, only those vesicles that are present in both green (G) and red (R) channels were considered. […]

Compound: CCN(CC)/[N+]([O-])=N/O.CCNCC [DEA NONOate, Diethylamine NONOate]
- half-life [1]: 2 min
- k1, decomposition rate constant ([2]; calculated from UV absorption at 250 nm): 0.00131 s⁻¹
- half-life ([2]; pH 7.4 at 25° C.): about 9 min

Compound: c1ccc(Cn2nnc3c(Sc4nc5ccccc5o4)ncnc32)cc1 [VAS2870]
- NO signal of NOckout with inhibitor (NOS2): did not reduce NO signal

Compound: C/C=C(/C)C(=O)O[C@H]1C(C)=C2[C@H]([C@@H]1OC(=O)CCCCCCC)[C@@](C)(OC(C)=O)C[C@H](OC(=O)CCC)[C@@]1(O)[C@H]2OC(=O)[C@@]1(C)O [thapsigargin]
- rate of NO production at the plasma membrane (NOS3; NOckout^PM): 576 ± 61 nM/s
- initial rate of NO production at the TGN (NOS3; NOckout^TGN): 74 ± 41 nM/s

Compound: NOckout^mGpC: control of NOckout^mCpG with non-immunostimulatory GpC motifs (TGCTGTCTGGTGTGCAGTGTTGATTTTCCATGAGCTTCCTGACCTT; DNA nanodevice strand, phosphorothioate ODN overhang and dyes, pattern not given here)
- TNF-α in the extracellular milieu (TNF-α): dramatic reduction in TNF-α levels
- reduction of NO-rich endosomes (murine TLR-9): 40%
